Test results as given in patent publication US7148380B2, “Bio-energy muscle relaxants” (priority 2000, dated 2006).

Key:
[1] = test system: contraction of bronchial smooth muscle induced by histamine; experiment: By-pass-airflow pressure, bronchial smooth muscle contraction induced by histamine; format: in vivo, guinea pig
Experimental: The animals were divided as saline, BDM, and aminophylline groups. Each animal was anesthetized with pentobarbital (30 mg/kg, I.P.), the trachea was intubated and connected to respirator. Tidal volume and frequency of the respirator were adjusted to 6˜10 ml and 60˜70 breath/min. respectively.
A small hole on chest wall of the animal was made, resulting in pneumothorax to inhibit spontaneous respiration of the animal. A modified device was used for measuring by-pass-airflow pressure of the airway, reflecting alteration in airway resistance, therefore evaluating status of bronchial smooth muscle contraction induced by histamine. The by-pass-airflow pressures were measured before and at 10, 20, 30, 40, 50, and 60 min after administration of histamine (5˜10 μg, I.P.) as control values. […] Changes in by-pass-airflow pressure caused by histamine before and after saline, BDM, or aminophylline were compared.
A percentage of changes in the airflow pressures before and after administration of the histamine at different time points, defined as the change rate, was calculated according to formula 1 below: Change rate (%)=(PA−PB)/PB×100% (1)
where PA is the airflow pressure after histamine, PB is the pressure before histamine. Values were expressed as mean±SD, paired or group “t” test was used upon the requirement for the statistical analysis. The results were considered significant when p<0.05.

[2] = test system: drug-induced asthma in guinea pig; experiment: Asthmatic latent period / drug-induced asthma in guinea pig (acetylcholine + histamine inhalation); format: in vivo
Experimental: Sensitive animals were chosen by aerosolized inhalation of asthma-inducing agents—a mixed solution of 2% acetylcholine with 0.1% histamine for 15 sec., inducing an asthmatic attack with severe difficulty in respiration and finally resulting in the animal body turned down. The time from beginning of the inhalation to animal turned down was recorded as an index named “turned down time” or asthmatic latent period. Those animals with turned down time less than 120 s. were selected for the study next day. […] Then the latent period was recorded for each of the animals.
(1) Screening animals: animal was put in a glass container, a mixed solution of 2% acetylcholine and 0.1% histamine was nebulized with a pressure of 400 mmHg and inhaled by the animals for 15 sec. Following the end of the inhalation, the time between beginning of the inhalation and the animal turned down due to bronchial spasm and dyspnea was recorded as asthmatic latent period. Those animals with a latent period beyond 120 s. were excluded, and those with a latent period less than 120 s were selected for study the next day.
(4) Measuring: Repeat the inhalation at 30 min, 4 h, and 24 h after administration of the drugs respectively. Asthmatic latent period was recorded, 6 minutes were taken as the maximum, and values beyond 6 min were counted as 6 min.
(5) Data analysis: Values were expressed as mean±sd, and paired for “t” and chi-square tests. Significance was considered to be established when p<0.05.

[3] = after drug 10 ml/kg I.P., 10 min after histamine
[4] = after drug 10 ml/kg I.P., 20 min after histamine
[5] = after drug 10 ml/kg I.P., 30 min after histamine
[6] = after drug 10 ml/kg I.P., 40 min after histamine
[7] = after drug 10 ml/kg I.P., 50 min after histamine
[8] = after drug 10 ml/kg I.P., 60 min after histamine
[9] = before drug administration, 10 min after histamine
[10] = before drug administration, 20 min after histamine
[11] = before drug administration, 30 min after histamine
[12] = before drug administration, 40 min after histamine
[13] = before drug administration, 50 min after histamine
[14] = before drug administration, 60 min after histamine
[15] = 10 ml/kg I.P. (BDM 0.2M, aminophylline 1.25%), mean±sd

Cn1c(=O)c2[nH]cnc2n(C)c1=O [Aminophylline, aminophylline, reference compound]
by-pass-airflow pressure, A, B. Hist ([1]; after drug 10 ml/kg I.P. (BDM 0.2M, aminophylline 1.25%), before histamine): 4.24 ± 1.18 Kpa | by-pass-airflow pressure, A, Hist 10 min. [1, 3]: 4.36 ± 1.10 Kpa | changing rate of by-pass-airflow pressure, A, Hist 10 min. [1, 3]: −7.68% | by-pass-airflow pressure, A, Hist 20 min. [1, 4]: 4.18 ± 0.86 Kpa | changing rate of by-pass-airflow pressure, A, Hist 20 min. [1, 4]: −10.62% | by-pass-airflow pressure, A, Hist 30 min. [1, 5]: 4.20 ± 0.92 Kpa | changing rate of by-pass-airflow pressure, A, Hist 30 min. [1, 5]: −10.40% | by-pass-airflow pressure, A, Hist 40 min. [1, 6]: 4.15 ± 0.88 Kpa | changing rate of by-pass-airflow pressure, A, Hist 40 min. [1, 6]: −11.38% | by-pass-airflow pressure, A, Hist 50 min. [1, 7]: 4.10 ± 0.92 Kpa | changing rate of by-pass-airflow pressure, A, Hist 50 min. [1, 7]: −12.73% | by-pass-airflow pressure, A, Hist 60 min. [1, 8]: 4.02 ± 0.92 Kpa | changing rate of by-pass-airflow pressure, A, Hist 60 min. [1, 8]: −14.25% | histamine-induced increase in the airflow pressure ([1]; at 10, 20, 30, 40, 50, and 60 min after administration, p<0.01 or p<0.05): significantly reduce | by-pass-airflow pressure, B, Hist 10 min. [1, 9]: 4.51 ± 0.65 Kpa | changing rate of by-pass-airflow pressure, B, Hist 10 min. [1, 9]: 8.37% | by-pass-airflow pressure, B, Hist 20 min. [1, 10]: 4.34 ± 0.73 Kpa | changing rate of by-pass-airflow pressure, B, Hist 20 min. [1, 10]: 3.93% | by-pass-airflow pressure, B, Hist 30 min. [1, 11]: 4.40 ± 0.79 Kpa | changing rate of by-pass-airflow pressure, B, Hist 30 min. [1, 11]: 5.31% | by-pass-airflow pressure, B, Hist 40 min. [1, 12]: 4.42 ± 0.80 Kpa | changing rate of by-pass-airflow pressure, B, Hist 40 min. [1, 12]: 5.80% | by-pass-airflow pressure, B, Hist 50 min. [1, 13]: 4.42 ± 0.86 Kpa | changing rate of by-pass-airflow pressure, B, Hist 50 min. [1, 13]: 5.63% | by-pass-airflow pressure, B, Hist 60 min. [1, 14]: 4.46 ± 0.87 Kpa | changing rate of by-pass-airflow pressure, B, Hist 60 min. [1, 14]: 6.54% | by-pass-airflow pressure, B, B. Hist ([1]; before drug administration, before histamine): 4.18 ± 0.72 Kpa | changing rate of by-pass-airflow pressure, D, Hist 10 min. ([1]; difference A minus B, 10 min after histamine): −16.05% | changing rate of by-pass-airflow pressure, D, Hist 20 min. ([1]; difference A minus B, 20 min after histamine): −14.55% | changing rate of by-pass-airflow pressure, D, Hist 30 min. ([1]; difference A minus B, 30 min after histamine): −15.71% | changing rate of by-pass-airflow pressure, D, Hist 40 min. ([1]; difference A minus B, 40 min after histamine): −17.19% | changing rate of by-pass-airflow pressure, D, Hist 50 min. ([1]; difference A minus B, 50 min after histamine): −18.36% | changing rate of by-pass-airflow pressure, D, Hist 60 min. ([1]; difference A minus B, 60 min after histamine): −20.79% | Asthamatic Latent Period, 30 minutes after administration ([2]; 10 ml/kg I.P. (BDM 0.2M, aminophylline 1.25%), maximum 6 min, mean±sd): 298.2 ± 138.2 s | Asthamatic Latent Period, 4 hours after administration [2, 15]: 216.6 ± 112.5 s | Asthamatic Latent Period, 24 hours after administration [2, 15]: 96 ± 26.9 s | Incidence of asthmatic spasm ([2]; 30 min after administration, down from 100%, not significant): 40% | Asthamatic Latent Period, before administration ([2]; baseline before drug, 10 ml/kg I.P. (BDM 0.2M, aminophylline 1.25%), mean±sd): 70.6 ± 27.7 s | Effect on the latent period ([2]; thirty minutes and 4 h after administration, p<0.05): significantly extended
